Source: a compilation of properties of binary mixtures (doi:10.1021/acs.jced.0c00987)

Assay: xn = mol fraction of the nth substance listed
Details: 100 kPa

OCCN(CCO)CCO + CCOS(=O)(=O)[O-].CC[n+]1ccn(C)c1
Details | electrical conductivity, 298.15 K [S/m] | electrical conductivity, 313.15 K [S/m] | viscosity, 293.15 K [mPa·s] | viscosity, 298.15 K [mPa·s] | viscosity, 303.15 K [mPa·s] | viscosity, 313.15 K [mPa·s]
x1 = 0.153 | 0.356 | – | – | 97.8 | 77.1 | –
x1 = 0.285 | 0.284 | 0.53 | 121.9 | 94.1 | 74 | 48.1
x1 = 0.52 | 0.173 | 0.349 | 137.4 | 103.5 | 79.5 | 49.8
x1 = 0.617 | 0.126 | 0.266 | – | 117.8 | – | 54.3
x1 = 0.703 | 0.085 | 0.189 | 209.4 | 151.8 | 112.4 | 66
x1 = 0.787 | – | 0.108 | 286.6 | – | 146.5 | 82.5
x1 = 0.866 | 0.0219 | 0.055 | 416 | 287.3 | – | 110.1
x1 = 0.929 | – | 0.0234 | 583 | – | – | 143.5
x1 = 0.967 | – | 0.0103 | – | – | – | 167.7
x2 = 0.003 | 0.0004 | 0.0012 | 871 | 579 | 394 | 197.1
x2 = 0.006 | 0.0008 | 0.0021 | 857 | 570 | – | 195.3
x2 = 0.019 | 0.0021 | 0.0058 | 792 | 528 | 361 | 182.4

OCCO + CCOS(=O)(=O)[O-].CC[n+]1ccn(C)c1
x1 = 1
Details | viscosity [mPa·s]
293.15 K | 20.8
313.15 K | 9.52

OCCN(CCO)CCO + CC[n+]1ccn(C)c1.O=S(=O)([O-])C(F)(F)F
Details | electrical conductivity, 298.15 K [S/m] | electrical conductivity, 313.15 K [S/m] | viscosity, 293.15 K [mPa·s] | viscosity, 298.15 K [mPa·s] | viscosity, 303.15 K [mPa·s] | viscosity, 313.15 K [mPa·s]
x1 = 0.084 | 0.82 | 1.29 | – | 43.4 | – | 25.7
x1 = 0.167 | 0.72 | – | 55.7 | 45.1 | – | –
x1 = 0.305 | 0.53 | 0.92 | 66.8 | 52.5 | 42 | 28.2
x1 = 0.426 | – | 0.63 | 86.2 | – | 51 | 32.8
x1 = 0.539 | – | 0.463 | 118.7 | – | 66.2 | 40.7
x1 = 0.641 | 0.137 | 0.296 | 165 | 118.4 | – | 50.9
x1 = 0.723 | 0.079 | – | 233.1 | 163.2 | 117.4 | –
x1 = 0.802 | 0.041 | 0.102 | 336 | 228.6 | 160.6 | 86.3
x1 = 0.875 | – | 0.05 | 477 | – | 220.7 | 114.8
x1 = 0.94 | 0.0067 | 0.019 | 678 | 449 | 306.2 | 155
x1 = 0.969 | 0.0032 | 0.0092 | 793 | 523 | 355 | 177.4
x2 = 0.003 | 0.0004 | 0.0012 | 913 | 599 | 405 | 200.7
x2 = 0.006 | 0.0007 | – | 902 | 591 | – | –
x2 = 0.017 | 0.0019 | 0.0054 | 848 | 557 | 377 | 188

OCCO + CC[n+]1ccn(C)c1.O=S(=O)([O-])C(F)(F)F
x1 = 1
Details | viscosity [mPa·s]
293.15 K | 20.8
298.15 K | 16.8
303.15 K | 13.8
313.15 K | 9.52

CCOS(=O)(=O)[O-].CC[n+]1ccn(C)c1 + OCC(O)CO
Details | electrical conductivity, 298.15 K [S/m] | electrical conductivity, 313.15 K [S/m] | viscosity, 293.15 K [mPa·s] | viscosity, 298.15 K [mPa·s] | viscosity, 303.15 K [mPa·s] | viscosity, 313.15 K [mPa·s]
x1 = 0.002 | 0.0004 | – | 1381.9 | 892 | 590 | –
x1 = 0.004 | 0.0006 | – | 1352.7 | 873 | 578 | –
x1 = 0.012 | 0.002 | 0.0063 | 1239 | 804 | 535 | 255.6
x2 = 0 | – | – | 123.5 | 95.9 | 75.7 | 49.7
x2 = 0.123 | – | 0.72 | 114.1 | – | 70.7 | 46.7
x2 = 0.264 | 0.386 | 0.71 | 104.7 | 81.9 | – | 43.1
x2 = 0.39 | 0.365 | 0.67 | 101.5 | 79.1 | 62.6 | 41.2
x2 = 0.5 | 0.313 | 0.6 | – | 81.2 | – | 41.2
x2 = 0.601 | – | 0.496 | 121 | – | 70.4 | 44.1
x2 = 0.703 | 0.173 | 0.371 | 162.3 | 119.2 | 89.3 | 53.3
x2 = 0.794 | 0.089 | 0.209 | 248.6 | 176.4 | 128 | 72.1
x2 = 0.901 | 0.026 | 0.071 | 533 | 360 | 249.8 | 129.3
x2 = 0.958 | 0.0075 | – | 922 | 604 | 406 | –
x2 = 0.98 | 0.0033 | 0.0102 | 1138.7 | 742 | – | 237.9

CC[n+]1ccn(C)c1.O=S(=O)([O-])C(F)(F)F + OCC(O)CO
Details | electrical conductivity, 298.15 K [S/m] | electrical conductivity, 313.15 K [S/m] | viscosity, 293.15 K [mPa·s] | viscosity, 298.15 K [mPa·s] | viscosity, 303.15 K [mPa·s] | viscosity, 313.15 K [mPa·s]
x1 = 0.002 | 0.0003 | 0.0008 | – | 887 | 588 | 280.1
x1 = 0.004 | 0.0006 | 0.0018 | 1333.2 | 862 | 572 | 272.9
x1 = 0.011 | 0.0014 | 0.0044 | 1257.8 | 815 | 543 | 259.2
x1 = 0.018 | 0.0025 | – | 1168.4 | 760 | 506 | –
x2 = 0.199 | 0.85 | 1.35 | – | 40.1 | 33.2 | 23.6
x2 = 0.299 | 0.77 | – | 50.2 | 40.7 | 33.4 | –
x2 = 0.401 | – | 1.16 | 57.2 | – | 36.6 | 24.9
x2 = 0.499 | 0.492 | 0.89 | 70.2 | 54.4 | 42.9 | 28
x2 = 0.605 | 0.316 | 0.6 | – | 73.4 | 56 | 34.7
x2 = 0.698 | 0.198 | 0.416 | – | 106.2 | 78.8 | 46.3
x2 = 0.805 | 0.089 | 0.21 | 261.5 | 182.8 | 130.6 | 71.6
x2 = 0.899 | 0.0255 | 0.066 | 545 | 366 | 251.6 | 128.5
x2 = 0.919 | 0.0172 | 0.0486 | 646 | 430 | 293.3 | 147.6
x2 = 0.962 | 0.0056 | 0.0174 | – | 633 | – | 206.8

CCOS(=O)(=O)[O-].CC[n+]1ccn(C)c1 + OCCN(CCO)CCO
x2 = 0
Details | viscosity [mPa·s]
293.15 K | 123.5
298.15 K | 95.9
313.15 K | 49.7

CCOS(=O)(=O)[O-].CC[n+]1ccn(C)c1 + OCCO
Details | electrical conductivity, 298.15 K [S/m] | electrical conductivity, 313.15 K [S/m] | viscosity, 293.15 K [mPa·s] | viscosity, 298.15 K [mPa·s] | viscosity, 303.15 K [mPa·s] | viscosity, 313.15 K [mPa·s]
x1 = 0.001 | – | 0.0161 | – | – | 13.5 | 9.345
x1 = 0.003 | 0.0213 | – | 20.6 | 16.7 | – | –
x1 = 0.008 | 0.057 | – | 20.6 | 16.7 | 13.7 | –
x1 = 0.014 | 0.096 | 0.162 | 20.3 | 16.5 | 13.5 | 9.4
x2 = 0 | – | – | 123.5 | – | 75.7 | 49.7
x2 = 0.304 | 0.68 | 1.13 | 54.6 | 44.5 | 36.7 | 25.1
x2 = 0.406 | 0.79 | – | – | 34.4 | 28.7 | –
x2 = 0.506 | 0.86 | 1.36 | 32.3 | 26.9 | 22.7 | 16.6
x2 = 0.597 | – | 1.48 | 25.8 | – | 18.3 | 13.5
x2 = 0.7 | 0.97 | 1.51 | 20.9 | 17.6 | 14.9 | 11
x2 = 0.792 | 0.87 | 1.38 | 18.4 | 15.4 | – | 9.59
x2 = 0.851 | – | 1.16 | 17.8 | – | 12.5 | 9.08
x2 = 0.899 | 0.53 | 0.86 | 18 | 14.9 | 12.4 | 8.92
x2 = 0.938 | 0.36 | – | 18.6 | 15.3 | 12.7 | –
x2 = 0.972 | 0.178 | 0.299 | 19.7 | 16.1 | 13.2 | 9.28

CC[n+]1ccn(C)c1.O=S(=O)([O-])C(F)(F)F + OCCO
Details | electrical conductivity, 298.15 K [S/m] | electrical conductivity, 313.15 K [S/m] | viscosity, 293.15 K [mPa·s] | viscosity, 298.15 K [mPa·s] | viscosity, 303.15 K [mPa·s] | viscosity, 313.15 K [mPa·s]
x1 = 0.001 | – | 0.0144 | 20.75 | – | 13.8 | 9.535
x1 = 0.002 | 0.0193 | 0.0335 | 20.6 | 16.7 | – | 9.46
x1 = 0.007 | 0.054 | 0.093 | – | 16.5 | 13.5 | 9.39
x1 = 0.013 | 0.082 | 0.137 | 20.1 | 16.3 | – | 9.28
x2 = 0.2 | 1.21 | 1.83 | 32.8 | 27.6 | – | 17.3
x2 = 0.413 | 1.44 | 2.17 | 21.9 | 18.6 | 15.9 | 11.9
x2 = 0.497 | – | – | 19.4 | 16.4 | 14 | –
x2 = 0.498 | 1.51 | 2.28 | – | – | – | –
x2 = 0.586 | 1.41 | 2.12 | – | – | – | –
x2 = 0.587 | – | – | 17.6 | 14.8 | 12.7 | 9.5
x2 = 0.697 | 1.25 | 1.91 | 15.8 | 13.3 | 11.3 | 8.39
x2 = 0.808 | 0.95 | – | 15.7 | 13 | 11 | –
x2 = 0.863 | 0.74 | 1.2 | 15.6 | 12.9 | 10.1 | 7.81
x2 = 0.907 | 0.52 | 0.87 | 17.1 | 14.1 | 11.7 | 8.32
x2 = 0.944 | 0.331 | 0.56 | 18.3 | 15 | 12.4 | 8.71
x2 = 0.974 | 0.161 | 0.276 | – | 15.9 | 13.1 | 9.1
